Molecular target: T1, fibrinogen receptor (GPIIb-IIIa) (Homo sapiens, UniProt P05106+P08514)
T1 construct: Ten units of outdated, washed human platelets (obtained from Red Cross) were lyzed; from tissue; host or cells: outdated human platelets (Red Cross); GPIIb-IIIa purified on lentil lectin sepharose and incorporated in liposomes
Experiment: Competitive binding to GPIIb-IIIa ([3H]-SK&F-107260 displacement, GPIIb-IIIa liposomes)
Conditions: purified human platelet GPIIb-IIIa in liposomes; 4.5 nM [3H]-SK&F-107260; Ki from IC50 by Cheng and Prusoff equation; read-out: Ki, inhibition of [3H]-SK&F 107260 binding
Method: Ten units of outdated, washed human platelets (obtained from Red Cross) were lyzed by gentle stirring in 3% octylglucoside, 20 mM Tris-HCl, pH 7.4, 140 mM NaCl, 2 mM CaCl2 at 4° C. for 2 h. The lysate was centrifuged at 100,000 g for 1 h. The supernatant obtained was applied to a 5 mL lentil lectin sepharose 4B column (E.Y. Labs) preequilibrated with 20 mM Tris-HCl, pH 7.4, 100 mM NaCl, 2 mM CaCl2, 1% octylglucoside (buffer A). After 2 h incubation, the column was washed with 50 mL cold buffer A. The lectin-retained GPIIb-IIIa was eluted with buffer A containing 10% dextrose. All procedures were performed at 4° C. The GPIIb-IIIa obtained was >95% pure as shown by SDS polyacrylamide gel electrophoresis. […]
The binding to the fibrinogen receptor (GPIIb-IIIa) was assayed by an indirect competitive binding method using [^3 H]-SK&F-107260 as an RGD-type ligand. […] Bound radioactivity remaining on the filters was counted in 1.5 mL Ready Solve (Beckman Instruments, Fullerton, Calif.) in a Beckman Liquid Scintillation Counter (Model LS6800), with 40% efficiency. Nonspecific binding was determined in the presence of 2 μg unlabeled SK&F-107260 and was consistently less than 0.14% of the total radioactivity added to the samples. […]
Competition binding data were analyzed by a nonlinear least-squares curve fitting procedure. […]

T1 sequence (P08514 32-887 limits assumed): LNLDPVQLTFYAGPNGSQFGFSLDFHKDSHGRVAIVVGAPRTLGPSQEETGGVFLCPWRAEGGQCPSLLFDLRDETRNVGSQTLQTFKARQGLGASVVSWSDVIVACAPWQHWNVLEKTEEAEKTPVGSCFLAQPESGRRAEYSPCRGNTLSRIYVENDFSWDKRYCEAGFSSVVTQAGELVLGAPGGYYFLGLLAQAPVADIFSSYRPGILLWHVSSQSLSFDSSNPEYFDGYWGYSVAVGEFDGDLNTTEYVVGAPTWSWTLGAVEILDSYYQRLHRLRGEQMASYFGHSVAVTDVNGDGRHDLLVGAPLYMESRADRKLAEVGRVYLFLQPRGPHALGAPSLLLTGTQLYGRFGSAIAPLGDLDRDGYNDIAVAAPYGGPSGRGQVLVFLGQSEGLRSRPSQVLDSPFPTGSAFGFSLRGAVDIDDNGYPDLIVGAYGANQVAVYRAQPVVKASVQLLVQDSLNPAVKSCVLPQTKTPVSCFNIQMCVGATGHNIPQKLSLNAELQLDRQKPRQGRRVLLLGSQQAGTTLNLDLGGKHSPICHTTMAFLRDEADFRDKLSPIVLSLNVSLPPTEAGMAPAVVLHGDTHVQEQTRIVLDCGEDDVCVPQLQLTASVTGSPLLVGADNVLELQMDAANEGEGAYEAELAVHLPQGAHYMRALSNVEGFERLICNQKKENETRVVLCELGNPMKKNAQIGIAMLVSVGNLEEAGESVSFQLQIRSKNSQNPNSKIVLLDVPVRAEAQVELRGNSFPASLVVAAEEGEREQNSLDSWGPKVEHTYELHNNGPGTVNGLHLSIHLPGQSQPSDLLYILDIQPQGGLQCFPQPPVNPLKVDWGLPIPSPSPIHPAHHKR
T1 sequence (P08514 891-1039 limits assumed): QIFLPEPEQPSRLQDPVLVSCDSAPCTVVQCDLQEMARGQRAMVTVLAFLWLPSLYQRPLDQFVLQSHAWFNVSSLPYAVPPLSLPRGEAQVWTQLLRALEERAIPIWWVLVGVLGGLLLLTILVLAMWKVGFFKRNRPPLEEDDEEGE
T1 sequence (P05106 27-788): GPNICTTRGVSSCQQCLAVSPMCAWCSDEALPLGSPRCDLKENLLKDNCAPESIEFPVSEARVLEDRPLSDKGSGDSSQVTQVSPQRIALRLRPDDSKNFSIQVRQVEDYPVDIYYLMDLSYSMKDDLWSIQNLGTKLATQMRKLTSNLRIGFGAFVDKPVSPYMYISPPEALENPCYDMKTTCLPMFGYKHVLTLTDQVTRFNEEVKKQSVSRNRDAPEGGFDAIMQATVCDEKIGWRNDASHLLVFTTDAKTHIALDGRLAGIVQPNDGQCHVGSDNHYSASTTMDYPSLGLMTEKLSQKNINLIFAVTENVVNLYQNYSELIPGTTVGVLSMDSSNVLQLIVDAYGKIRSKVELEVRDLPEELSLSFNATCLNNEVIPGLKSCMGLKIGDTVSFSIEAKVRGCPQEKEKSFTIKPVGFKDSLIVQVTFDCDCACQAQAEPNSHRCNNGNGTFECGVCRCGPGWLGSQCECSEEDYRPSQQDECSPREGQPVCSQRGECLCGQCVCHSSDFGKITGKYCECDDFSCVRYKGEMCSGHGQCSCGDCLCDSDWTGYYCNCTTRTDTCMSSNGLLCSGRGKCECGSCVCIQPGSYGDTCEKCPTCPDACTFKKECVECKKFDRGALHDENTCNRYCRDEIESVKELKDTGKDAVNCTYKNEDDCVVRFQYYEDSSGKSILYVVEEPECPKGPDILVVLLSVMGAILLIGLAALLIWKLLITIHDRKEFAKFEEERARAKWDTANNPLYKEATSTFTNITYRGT

Ki: ~5 nM
SMILES: O=C(O)CN1CCC(C(=O)Nc2ccc(N3CCNCC3)cc2)CC1 [Example 1, 4-[[[4-(1-piperazinyl)phenyl]amino]carbonyl]-1-piperidineacetic acid]

— patent US6069143A, “Fibrinogen receptor antagonists” (SmithKline Beecham Corporation, priority 1996, dated 2000)
